Where “and” joins values, the source holds several entries; their conditions need not be identical. Identical values can stand only once. Toxic doses and inconclusive results are not listed.
Tested on: L1210 leukemia ip in BDF1 mice, survival T/C
Assay: NCI In Vivo Anticancer Drug Screen. Data for tumor model L1210 Leukemia (intraperitoneal) in B6D2F1 (BDF1) mice
Settings: endpoint: mean survival time, higher = longer survival
Outline: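 Mice bearing the transplanted tumor received compound or vehicle. Survival of the treated group was divided by that of the vehicle-treated control group to give the ratio.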

[1] = dose: 12.5 mg/kg/injection, schedule: Q01DX009 (ip), vehicle: saline
[2] = dose: 50.0 mg/kg/injection, schedule: Q01DX001 (ip), vehicle: saline
[3] = dose: 100.0 mg/kg/injection, schedule: Q01DX001 (ip), vehicle: saline
[4] = dose: 100.0 mg/kg/injection, schedule: Q04DX003 (ip), vehicle: Klucel (hydroxypropylcellulose) (HPC)
[5] = dose: 200.0 mg/kg/injection, schedule: Q04DX003 (ip), vehicle: Klucel (hydroxypropylcellulose) (HPC)
[6] = dose: 400.0 mg/kg/injection, schedule: Q04DX003 (ip), vehicle: Klucel (hydroxypropylcellulose) (HPC)
[7] = dose: 100.0 mg/kg/injection, schedule: Q01DX009 (ip), vehicle: saline
[8] = dose: 200.0 mg/kg/injection, schedule: Q01DX001 (ip), vehicle: saline
[9] = dose: 200.0 mg/kg/injection, schedule: Q01DX009 (ip), vehicle: saline
[10] = dose: 400.0 mg/kg/injection, schedule: Q01DX001 (ip), vehicle: saline
[11] = dose: 400.0 mg/kg/injection, schedule: Q01DX009 (ip), vehicle: saline
[12] = dose: 50.0 mg/kg/injection, schedule: Q01DX001 (ip), vehicle: carboxymethylcellulose (CMC)
[13] = dose: 100.0 mg/kg/injection, schedule: Q01DX001 (ip), vehicle: carboxymethylcellulose (CMC)
[14] = dose: 100.0 mg/kg/injection, schedule: Q01DX009 (ip), vehicle: Klucel (hydroxypropylcellulose) (HPC)
[15] = dose: 200.0 mg/kg/injection, schedule: Q01DX001 (ip), vehicle: carboxymethylcellulose (CMC)
[16] = dose: 200.0 mg/kg/injection, schedule: Q01DX009 (ip), vehicle: Klucel (hydroxypropylcellulose) (HPC)
[17] = dose: 400.0 mg/kg/injection, schedule: Q01DX001 (ip), vehicle: carboxymethylcellulose (CMC)
[18] = dose: 100.0 mg/kg/injection, schedule: Q01DX009 (ip), vehicle: saline with Tween-80
[19] = dose: 100.0 mg/kg/injection, schedule: Q04DX003 (ip), vehicle: saline
[20] = dose: 200.0 mg/kg/injection, schedule: Q01DX009 (ip), vehicle: saline with Tween-80
[21] = dose: 200.0 mg/kg/injection, schedule: Q04DX003 (ip), vehicle: saline
[22] = dose: 400.0 mg/kg/injection, schedule: Q04DX003 (ip), vehicle: saline
[23] = dose: 400.0 mg/kg/injection, schedule: Q01DX009 (ip), vehicle: Klucel (hydroxypropylcellulose) (HPC)
[24] = dose: 300.0 mg/kg/injection, schedule: Q01DX001 (ip), vehicle: saline
[25] = dose: 100.0 mg/kg/injection, schedule: Q04DX002 (ip), vehicle: saline
[26] = dose: 200.0 mg/kg/injection, schedule: Q04DX002 (ip), vehicle: saline
[27] = dose: 400.0 mg/kg/injection, schedule: Q04DX002 (ip), vehicle: saline

For `S=C([SH2+])[SH2+].S=C([SH2+])[SH2+].[Pt+2].c1ccc(C[P+](c2ccccc2)(c2ccccc2)c2ccccc2)cc1`, the T/C [1] was 96 % of control and the T/C (dose: 25.0 mg/kg/injection, schedule: Q01DX009 (ip), vehicle: saline) was 97 % of control.

With `CCOC(=O)C1(C2=NC(C)(C)CC(C)O2)CCCCC1` (stereo unspecified) the T/C (dose: 100.0 mg/kg/injection, schedule: Q01DX009 (ip), vehicle: other) was 102 % of control, the T/C (dose: 200.0 mg/kg/injection, schedule: Q01DX009 (ip), vehicle: other) was 100 % of control and the T/C (dose: 400.0 mg/kg/injection, schedule: Q01DX009 (ip), vehicle: other) was 107 % of control.

`O=C(CCN1CC1)Nc1cccc(NC(=O)CCN2CC2)c1` was tested, and the T/C (dose: 2.5 mg/kg/injection, schedule: Q01DX001 (ip), vehicle: Klucel (hydroxypropylcellulose) (HPC)) was 112 % of control and the T/C (dose: 40.0 mg/kg/injection, schedule: Q01DX001 (ip), vehicle: Klucel (hydroxypropylcellulose) (HPC)) was 153 % of control.

With `Nc1nc(N)c(-c2ccc(Cl)cc2)c(CCc2ccc(NC(=O)CBr)cc2)n1` the T/C [2] was 116 % of control and the T/C [3] was 110 % of control.

With `N=C1SCc2c1sc1ccccc21` the T/C [4] was 117 % of control, the T/C [5] was 104 % of control and the T/C [6] was 103 % of control.

For `COC1CCS(=O)(=O)C1` (stereo unspecified), the T/C [3] was 95 % of control, the T/C [7] was 97 % of control and the T/C [8] was 94 % of control. The T/C [9] was 98 % of control, the T/C [10] was 94 % of control and the T/C [11] was 100 % of control.

For `S=C1NCCS1`, the T/C [12] was 113 % of control, the T/C (dose: 50.0 mg/kg/injection, schedule: Q01DX009 (ip), vehicle: Klucel (hydroxypropylcellulose) (HPC)) was 110 % of control and the T/C [13] was 102 % of control. The T/C [14] was 108 % of control, the T/C [4] was 108 % of control and the T/C [15] was 94 % of control. For the same molecule, the T/C [16] was 110 % of control and the T/C [5] was 113 % of control.

For `COc1ccc(CN2CCCN(Cc3ccc(OC)cc3OC)C2c2cccc([N+](=O)[O-])c2O)c(OC)c1`, the T/C [12] was 104 % of control, the T/C [13] was 98 % of control and the T/C [15] was 110 % of control. The T/C [17] was 98 % of control.

In the case of `O=C(O)C1CC2C=CC1C2` (stereo unspecified), the T/C [18] is reported as 101 % of control, the T/C [19] is reported as 102 % of control and the T/C [20] is reported as 101 % of control. For the same molecule, the T/C [21] was 94 % of control, the T/C (dose: 400.0 mg/kg/injection, schedule: Q01DX009 (ip), vehicle: saline with Tween-80) was 102 % of control and the T/C [22] was 105 % of control.

For `N#CSCC1OCC(C(O)C(O)C2COC(CSC#N)O2)O1` (stereo unspecified), the T/C (dose: 100.0 mg/kg/injection, schedule: Q04DX002 (ip), vehicle: Klucel (hydroxypropylcellulose) (HPC)) was 95 % of control, the T/C (dose: 200.0 mg/kg/injection, schedule: Q04DX002 (ip), vehicle: Klucel (hydroxypropylcellulose) (HPC)) was 98 % of control and the T/C (dose: 400.0 mg/kg/injection, schedule: Q04DX002 (ip), vehicle: Klucel (hydroxypropylcellulose) (HPC)) was 95 % of control.

With `CC(C)(C)CC(C)(C)c1ccc(OCCOc2ccc(C(=O)O)cc2)cc1` the T/C [14] was 88 % of control, the T/C [16] was 92 % of control and the T/C [23] was 92 % of control.

`CC(=O)SCCC(=O)O` was tested, and the T/C (dose: 8.25 mg/kg/injection, schedule: Q01DX009 (ip), vehicle: saline) was 94 % of control, the T/C [1] was 92 % of control and the T/C (dose: 18.75 mg/kg/injection, schedule: Q01DX009 (ip), vehicle: saline) was 103 % of control.

For `CC1=CC(OC2CCCCO2)C2CC1C2(C)C` (stereo unspecified), the T/C [14] was 97 % of control, the T/C [4] was 98 % of control and the T/C [16] was 103 % of control. For the same molecule, the T/C [5] was 95 % of control, the T/C [23] was 92 % of control and the T/C [6] was 93 % of control.

In the case of `COc1ccc(C=Nc2ccc(Cl)cc2)cc1`, the T/C [14] is reported as 96 % of control, the T/C [4] is reported as 102 % of control and the T/C [16] is reported as 97 % of control. The T/C [5] was 104 % of control and the T/C [6] was 100 % of control.

With `O=[N+]([O-])c1cc(Cl)cc2c1-c1ccc(Cl)cc1C2` the T/C [4] was 98 % of control, the T/C [5] was 98 % of control and the T/C [6] was 98 % of control.

`Clc1ccc(CSc2nc3ccccc3[nH]2)cc1` was tested, and the T/C [14] was 94 % of control, the T/C [16] was 103 % of control and the T/C [23] was 103 % of control.

With `COC(=O)C1(C)CCCC2(C)C3CCC(C(C)C)C(CO)C3C(CO)CC12` (stereo unspecified) the T/C (dose: 100.0 mg/kg/injection, schedule: Q04DX003 (ip), vehicle: other) was 107 % of control, the T/C (dose: 200.0 mg/kg/injection, schedule: Q04DX003 (ip), vehicle: other) was 104 % of control and the T/C (dose: 400.0 mg/kg/injection, schedule: Q04DX003 (ip), vehicle: other) was 107 % of control.

For `S=C(NCCNC(=S)Nc1ccccc1)Nc1ccccc1`, the T/C (dose: 50.0 mg/kg/injection, schedule: Q01DX009 (ip), vehicle: saline with Tween-80) was 98 % of control, the T/C [18] was 92 % of control and the T/C [20] was 92 % of control.

`CCCCCCCCCCCCCCCCOc1ccc(Sc2ccc([N+](=O)[O-])cc2)cc1` was tested, and the T/C (dose: 400.0 mg/kg/injection, schedule: Q01DX001 (ip), vehicle: Klucel (hydroxypropylcellulose) (HPC)) was 87 % of control.

For `O=C(N/N=C/c1ccc([N+](=O)[O-])cc1)c1cccc2ccccc12`, the T/C [3] was 97 % of control, the T/C [8] was 89 % of control and the T/C [10] was 89 % of control.

For `Cc1ccc(S(=O)(=O)N(C)c2ccc(C#N)c(Cl)c2Cl)cc1`, the T/C (dose: 100.0 mg/kg/injection, schedule: Q04DX003 (ip), vehicle: saline with Tween-80) was 98 % of control, the T/C (dose: 200.0 mg/kg/injection, schedule: Q04DX003 (ip), vehicle: saline with Tween-80) was 96 % of control and the T/C (dose: 400.0 mg/kg/injection, schedule: Q04DX003 (ip), vehicle: saline with Tween-80) was 98 % of control.

`Oc1ccccc1C=Nc1cccc(Cl)c1Cl` was tested, and the T/C [4] was 91 % of control, the T/C [5] was 98 % of control and the T/C [6] was 100 % of control.

`O=C(NCCCCCCNC(=O)c1ccccc1)c1ccccc1` was tested, and the T/C [12] was 100 % of control, the T/C [13] was 103 % of control and the T/C [15] was 97 % of control. The T/C [17] was 97 % of control.

For `O=C1OC(=O)C2CCC12` (stereo unspecified), the T/C (dose: 75.0 mg/kg/injection, schedule: Q01DX001 (ip), vehicle: saline) was 93 % of control, the T/C [7] was 91 % of control and the T/C [19] was 98 % of control. For the same molecule, the T/C (dose: 150.0 mg/kg/injection, schedule: Q01DX001 (ip), vehicle: saline) was 101 % of control, the T/C [9] was 93 % of control and the T/C [21] was 101 % of control. The T/C [24] was 112 % of control and the T/C [22] was 98 % of control.

For `Cc1c(O)ccc(O)c1C`, the T/C [3] was 100 % of control and the T/C [8] was 95 % of control.

With `CCCOC(=O)C(C)(O)C(Cl)c1ccccc1` (stereo unspecified) the T/C (dose: 37.5 mg/kg/injection, schedule: Q01DX009 (ip), vehicle: Klucel (hydroxypropylcellulose) (HPC)) was 96 % of control, the T/C [2] was 104 % of control and the T/C (dose: 58.0 mg/kg/injection, schedule: Q01DX001 (ip), vehicle: saline) was 108 % of control. The T/C (dose: 75.0 mg/kg/injection, schedule: Q01DX009 (ip), vehicle: Klucel (hydroxypropylcellulose) (HPC)) was 100 % of control, the T/C (dose: 88.0 mg/kg/injection, schedule: Q01DX001 (ip), vehicle: saline) was 107 % of control and the T/C [3] was 103 % of control. The T/C [25] was 109 % of control and 114 % of control, the T/C (dose: 133.0 mg/kg/injection, schedule: Q01DX001 (ip), vehicle: saline) was 103 % of control and the T/C (dose: 150.0 mg/kg/injection, schedule: Q01DX009 (ip), vehicle: Klucel (hydroxypropylcellulose) (HPC)) was 104 % of control. For the same molecule, the T/C [8] was 106 % of control and 109 % of control, the T/C [26] was 117 % of control and the T/C [24] was 98 % of control. The T/C (dose: 300.0 mg/kg/injection, schedule: Q01DX009 (ip), vehicle: Klucel (hydroxypropylcellulose) (HPC)) was 104 % of control, the T/C [10] was 96 % of control and the T/C [27] was 105 % of control and 118 % of control.

For `Nc1cc(S(=O)(=O)O)cc2ccc(S(=O)(=O)O)cc12`, the T/C [7] was 102 % of control, the T/C [19] was 111 % of control and the T/C [9] was 96 % of control. The T/C [21] was 101 % of control, the T/C [11] was 102 % of control and the T/C [22] was 93 % of control.

With `C=CCNC(N)=S` the T/C [25] was 100 % of control, the T/C [26] was 107 % of control and the T/C [27] was 95 % of control.
